One data set relates to HCV. Conditions: cell-based screening; cited from earlier work.
The subject of the next data set is clathrin. The experiment in a line: Clathrin distribution during viral entry assay (confocal imaging). The format is cell-based, human. Conditions: HEK293 cells, PCZ 20 and 30 μM, compared to solvent-treated cells. The procedure: Cells were fixed with 4% PFA and permeabilized with 0.5% Triton X-100 in PBS. After a blocking with 5% skim milk in PBS, DENV protein expression was detected in cells incubated with mouse anti-DENV-2 NS3 antibody (49), then Alexa Fluor-488-conjugated anti-mouse secondary antibody (Molecular Probes) for 1 h at room temperature. The nuclei were stained with DAPI or Hoechst (Molecular Probes). Cells were examined under an inverted fluorescence microscope (Olympus 1X71). For confocal microcopy, cells were seeded on coverslips in 24-well culture plates. After virus absorption and treatment, cells were extensively washed with cold washing buffer and PBS, then fixed with cold 4% PFA. Cells were washed twice with cold 10 mM glycine solution, then PBS. For clathrin staining, cells were permeabilized with 0.5% Triton X-100 in PBS and blocked with 5% BSA in PBS. Cells were stained with mouse anti-clathrin heavy chain (X22) (Pierce, MA1-065), then anti-mouse Alexa Fluor-568-conjugated secondary antibody (Molecular Probes). The coverslip was mounted onto a slide and examined under confocal laser scanning microscope (ZEISS LSM 700).

Data set [1] has as its system DENV-2. Nature of the data set: Cell-based antiviral assay against DENV-2 (IFA, immunoblotting of NS3, plaque-forming assay). Set-up: species or system Dengue virus serotype 2 (PL046 strain). Conditions: Dengue virus, DENV2, HEK-293T, read-out: half-maximal effective concentration (EC50) against DENV-2 infection. The method, then: (A) PCZ cytotoxicity test. HEK293T cells were treated with solvent control or the indicated concentrations of PCZ for 24 h. AlamarBlue, XTT, and LDH assays were carried out to determine cell viability, cell proliferation, and cytotoxicity, respectively. Data are mean and standard deviation (SD) of 3 independent experiments. […] Representative immunofluorescence microscopy (400× magnification) of cells immunostained for DENV-2 NS3 (green) and DAPI for nuclei (blue). […] Plaque-forming assay of viral progeny production (plaque forming unit, PFU/ml) in culture supernatants of cells in panel C (D). Data are mean and SI) of 2 independent experiments. *P<0.05.
(A) PCZ cytotoxicity test. HEK293T cells were treated with solvent control or the indicated concentrations of PCZ (5, 10, 15, 20 and 25 μM). AlamarBlue, XTT and LDH assays were carried out to determine cell viability, cell proliferation, and cytotoxicity, respectively. […] (D) Plaque-forming assay of viral progeny production (plaque forming unit, PFU/ml): Data are mean and SD of two independent experiments. **P<0.01. […] BHK-21 cells (E) and N18 cells (F) infected with DENV-2 (MOI=0.1) were treated with or without PCZ for 2 days and 1 day, respectively.
HEK293T cells were infected with DENV-2 (MOI=0.1) with or without haloperidol for 1 day.
Monolayers of cells (HEK293T, BHK-21 and N18) in 6- or 12-well plates were infected with DENV-2 at the indicated multiplicity of infection (MOI). Virus was adsorbed for 2 h with the indicated concentrations of PCZ, then cells were washed thoroughly to remove unbound viruses and incubated for an additional 24 to 48 h with or without PCZ. The antiviral effect of PCZ was evaluated by immunofluorescence assay (IFA), immunoblotting and plaque-forming assay.
Cells were fixed with 4% PFA and permeabilized with 0.5% Triton X-100 in PBS.
For orientation: A western blot detects proteins with antibodies after separation by electrophoresis.

A further data set has as its system DENV-2 NGC-N strain. The experiment in a line: Animal study: DENV-2 challenge of Stat1-deficient mice. It counts as in vivo. Conditions: oral administration at 5 μg/gram body weight daily. The method, then:
Stat1^−/− mice were challenged with 5×10^4 PFU/mouse of DENV-2 NGC-N strain. The protective effect of PCZ dimaleate (A) and PCZ dimethanesulfonate (Novamin Injection) (B) were tested with immediate and 6-h delay treatment. (A) The mice received phosphate buffered saline (PBS; vehicle control, n=10), 5 mg (n=8) or 1 mg (n=8) PCZ-dimaleate/kg body weight/i.p. at the time of infection (immediate treatment), or 5 mg PCZ-dimaleate/kg body weight/i.p. at 6 h post-infection (6-h delay treatment, n=8). Mice received follow-up treatment with PBS (vehicle control) or half the dose of PCZ-dimaleate orally every 12 h until day-10 post infection. […] The days with treatment are marked by arrows. Mice survival was checked daily and the data are presented as percentage of survival.
The mouse experiments were approved and performed in accordance with the guidelines of the Academia Sinica Institutional Animal Care and Utilization Committee. Groups of 5-week-old Stat1-deficient (SaT1^−/−) mice were challenged intraperitoneally (i.p.) with 5×10^4 plaque-forming units (PFU)/mouse of DENV-2 NGC-N strain and simultaneously injected with 30 μl PBS intracranially (i.c.) into the right hemisphere of the brain. To study the efficacy of PCZ-dimaleate administered mainly by an oral route, mice were divided into 4 groups for treatment: PBS (vehicle control); 5 or 1 mg of PCZ/kg body weight/i.p. at the time of infection (immediate treatment); or 5 mg of PCZ/kg body weight/i.p. at 6 h post-infection (6-h delay treatment). Thereafter, twice a day, mice received a half dose of the first treatment orally with PBS (vehicle control) or 2.5 or 0.5 mg of PCZ/kg body weight/oral/12 h up to day 10 post-infection. […] Thereafter, every 2 days, mice received PBS or the same dose of PCZ up to day 10 post-infection. The mice were checked daily for mortality.

For data set [2] the following is noted: mice, cited from earlier work.
The next data set has as its system DENV-2 replicon. Nature of the data set: DENV-2 replicon dual luciferase assay. It counts as cell-based, Dengue virus serotype 2. Conditions: HEK293T, PCZ 10 μM applied 5 h post-transfection. The procedure:
DENV-2 replicon was constructed to contain the SP6 promoter upstream of a Renilla luciferase gene flanked by the DENV 5′ UTR plus a portion of the core gene in the 5′ end; portions of the envelope gene, full length of non-structural genes and 3′ UTR in the 3′ end. In vitro transcription was performed to generate the replicon RNA. HEK293T cells were co-transfected with replicon RNA and control firefly luciferase RNA. PCZ (10 μM) was applied to the transfected cells at 5 h post-transfection. Cells were then harvested at the indicated times for dual luciferase assays. Data are mean and SD of relative renilla luciferase to firefly luciferase from two independent experiments.

The test system of data set [3] is DENV-2. The experiment in a line: Virus binding assay (confocal microscopy, plaque-forming assay of cell-bound virus).

Where two headings read alike, the source gives them in different places.

Turning to `CN1CCN(CCCN2c3ccccc3Sc3ccc(Cl)cc32)CC1` [PCZ, prochlorperazine], in the data set on HCV, the anti-HCV activity result is listed as “showed anti-HCV activity”. Besides, the cellular clathrin distribution result with clathrin is reported as “showed a distinct clathrin distribution”. For the same compound, the EC50 in the data set with DENV-2 [1] was 88.4 nM. Besides, the “protection of DENV-2 challenge mice” value in the data set on DENV-2 NGC-N strain is “completely protected”. The LD50 in data set [2] (i.p. injection) was 191 mg/kg body weight; in data set [2] (oral route), 400 mg/kg body weight. The “relative renilla luciferase to firefly luciferase (DENV-2 translation and RNA replication)” value with DENV-2 replicon is listed as “No significant difference”. Besides, in the data set with DENV-2 [3] (A549 cells, MOI=5), the “DENV-2 binding quantified by plaque forming assay” value is on record as “dose-dependently reduced”. Further, the “levels of DENV-2 bound to the cell surface (confocal imaging)” value with DENV-2 [3] (HEK293T, PCZ 1 h before and during virus adsorption at 4° C.) was “reduced the levels of DENV-2 bound to the cell surface”.

The record behind these values is patent US20140066438A1, “DOPAMINE RECEPTOR D2 ANTAGONIST FOR PREVENTION AND TREATMENT OF FLAVIVIRUS INFECTION” (Academia Sinica, priority 2012, published 2014).
